Assay results from PMC9396645 (Frontiers in Chemistry, 2022).

What was measured:
C4-2 cells = assay: Internalization efficiency / specific cell uptake in C4-2 cells; assay type: cell-based, human; conditions: for Specific cell surface / Specific lysate (internalization): ^68Ga-labeled compounds 30 nM, 45 min, 37°C, specificity by 2-PMPA 500 μM, mean ± SD (n = 3)
Procedure: The specific internalization ratio was determinated in 24-well plates. The plates were previously coated with 0.1% poly-L-lysine in PBS for 20 min and washed with PBS once. C4-2 cells (10^5 cells per analysis) were added to each well and equilibrated overnight. The cells were incubated for 45 min with 250 µL of a 30 nM solution of the ^68Ga-labeled compounds either in a water bath at 37°C or on ice. The PSMA-receptor-blocking agent 2-(phosphonomethyl)pentanedioic acid (2-PMPA; 500 μM; Axxora) was used to verify the specificity of the cellular uptake of the novel compounds. The cells were washed thrice (using 1 ml of ice-cold PBS), followed by an incubation with 0.5 ml of a glycine solution (50 mM in HCl at a pH of 2.8) for 5 min, washed once with 1 ml of ice-cold PBS, and finally lysed with 0.5 ml of 0.3 M NaOH. The lysate was collected, and the radioactivity was measured in a gamma-counter. Triplicate measurements were performed for all experiments.

PSMA = molecular target: T1, PSMA (Homo sapiens, UniProt Q04609); assay: Competitive cell binding assay on C4-2 cells vs ^68Ga-PSMA-10; conditions: non-labeled compounds, radioligand ^68Ga-PSMA-10 0.75 nM, 37°C 45 min, mean ± SD (n = 3)
T1 construct: host or cells: C4-2 cells (subline of LNCaP)
T1 sequence (Q04609 whole entry): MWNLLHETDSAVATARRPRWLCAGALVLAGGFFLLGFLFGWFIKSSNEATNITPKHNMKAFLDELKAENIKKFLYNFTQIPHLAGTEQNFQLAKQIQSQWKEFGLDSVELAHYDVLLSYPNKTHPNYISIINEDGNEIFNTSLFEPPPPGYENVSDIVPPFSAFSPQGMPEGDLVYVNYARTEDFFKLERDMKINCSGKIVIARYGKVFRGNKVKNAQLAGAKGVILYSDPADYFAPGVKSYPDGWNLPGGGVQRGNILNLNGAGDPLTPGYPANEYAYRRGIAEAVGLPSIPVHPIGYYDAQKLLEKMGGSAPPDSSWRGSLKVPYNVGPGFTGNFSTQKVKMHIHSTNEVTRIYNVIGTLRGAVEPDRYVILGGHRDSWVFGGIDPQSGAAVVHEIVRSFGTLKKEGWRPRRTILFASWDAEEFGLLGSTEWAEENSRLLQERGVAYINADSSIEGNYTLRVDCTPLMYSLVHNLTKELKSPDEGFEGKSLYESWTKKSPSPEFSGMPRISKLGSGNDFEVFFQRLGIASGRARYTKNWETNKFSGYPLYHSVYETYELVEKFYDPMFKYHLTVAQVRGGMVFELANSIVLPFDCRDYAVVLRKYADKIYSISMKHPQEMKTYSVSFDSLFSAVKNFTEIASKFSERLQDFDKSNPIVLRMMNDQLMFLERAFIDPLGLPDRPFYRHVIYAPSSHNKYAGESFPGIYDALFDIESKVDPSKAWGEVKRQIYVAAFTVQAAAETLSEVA
Procedure: The competition binding assay was performed using the cell line C4-2 (ATCC® CRL-3314™; American Type Culture Collection). This is a subline of the PSMA-positive cell line LNCaP. The cells were cultivated in RPMI 1640 medium (PAN-Biotech), supplemented with 10% fetal bovine serum and 2 mM L-glutamine (PAN-Biotech) at 37°C and 5% CO2 in a humidified atmosphere.
A 96-well MultiScreenHTS-DV filter plate (Merck Millipore) was incubated at room temperature with 100 µL of a 1% bovine serum albumin (BSA) solution in PBS (phosphate-buffered saline) per well for 30 min. After removal of PBS/BSA solution, 1 × 10^5 C4-2 cells in 50 µL of Opti-MEM medium (Gibco, Life Technologies) were seeded into each well. […] All non-labeled compounds were dissolved in Opti-MEM and added as competing ligands at several concentrations: 0, 0.5, 1, 2.5, 5, 10, 25, 50, 100, 500, 1,000, and 5,000 nM. After incubation at 37°C for 45 min, the cells were washed twice with PBS at 4°C. The radioactivity in the supernatant and that accumulated by the cells was determined with a γ-counter (Packard Cobra Auto-gamma). Using Graph Pad Prism 5.01 software, a nonlinear regression algorithm was calculated to obtain the 50% inhibitory concentration (IC50). These experiments were performed in quadruplicate.

[1] = Determination of plasma half-life in athymic nude mice; assay type: in vivo, mouse; conditions: athymic nude mice (n = 3), i.v. 4–6 MBq, biexponential fit, weighted overall half-life
Procedure: The radioligands ^68Ga-CA027 and ^68Ga-CA028 (4–6 MBq) were injected into athymic nude mice (n = 3) via the lateral tail vein. Blood (25–50 μL) was collected 2, 5, 15, 30, 45, 60, 90, and 120 min post injection via either the tail or saphenous vein, and the activity of the blood samples was determined in a γ-counter. Both procedures furnished consistent and reproducible results. The percentage of the injected dose per gram of tissue (%ID/g) was calculated, and the resulting values were plotted as a function of time. A biexponential decay curve was used as a fit function, accounting for a short blood half-life (a-phase) during the initial phase directly after injection and a longer blood half-life during the terminal phase (b-phase). The data analysis program Prism 7™ was used to determine both half-lives, t1/2-a and t1/2-b, as well as their relative contribution (in %) to the overall half-life (t1/2). Subsequently, both half-lives were weighed according to their relative contribution to the overall blood half-life t1/2. At the time of tracer injection (t = 0), it was assumed that %ID/g = 50. The injected dose at t = 0 equals 100%, divided by the total mass of blood (approximately 2 g in the case of 6‒8 weeks old mice) gives %ID/g t=0 = 50.

C4-2 tumor-bearing mice = assay: In vivo metabolite analysis by radio-HPLC of tissue extracts; design: species or system mouse; conditions: extracts from kidney, blood, liver and tumor of C4-2 tumor-bearing mice, 10 MBq, 0.2 nmol i.v.
Procedure: The metabolization of the radiolabeled tracers in vivo was studied by radio-HPLC analysis. Male nude C4-2 tumor-bearing mice (n = 3) were injected with ^177Lu-CA028 or ^177Lu-PSMA-617 (10 MBq, 0.2 nmol in approximately 100 µL of 0.9% saline) via the tail vein. Ten min post injection, blood, the liver, and the kidneys were dissected. The tissues were rinsed with ice-cold saline, blotted dry, treated with 2 mL of 0.1 M NH4OAc/EtOH (35:65), and homogenized with an Ultra-Turrax T8 (IKA Labortechnik). The samples were then centrifuged for 10 min at 12,000 × g and 4°C. For HPLC measurements, an aliquot of the supernatants was prepared by precipitation of the proteins with ACN as described above for serum stability testing. The samples were analyzed by radio-HPLC (0–100% ACN in 5 min, 2 mL/min, Monolith column, Merck). The fractions were collected every 10 s over the whole course of the chromatographic run. Subsequently, the activity of the samples was measured in a gamma-counter to reconstruct a chromatogram.

[2] = Serum stability (radio-HPLC and radio-ITLC); assay type: in vitro ADME; conditions: ^177Lu-labeled; for release of ^177Lu in human serum: radio-ITLC
Procedure: After radiolabeling of the compounds, serum stability was examined by HPLC and ITLC (instant thin-layer chromatography). 50 µL (20 MBq) of the ^177Lu-labeled ligands was added to 200 µL human serum (Sigma-Aldrich) and incubated at 37°C. At different time points (0, 2, 24, 48, and 72 h) 0.5 µL was applied onto iTLC-SG-glass microfiber chromatography paper strips (5 × 0.5 cm; Agilent Technologies) at a distance of 1 cm from the bottom. The strip was placed upright into a vial containing 120 µL of sodium citrate buffer (0.5 M, pH = 5.0). The buffer front was allowed to rise to the top. Subsequently, each strip was cut in eight equally sized pieces that were subsequently measured in a gamma-counter. For HPLC analysis, an equal volume of ACN was added to the samples; under these conditions, the serum proteins precipitated. The samples were centrifuged for 10 min at 12,000 × g. Following the separation of the pellet and the supernatant, their relative activity (%) was determined. An aliquot of the supernatant was analyzed by radio-HPLC (0–100% ACN in 5 min, Monolith column, Merck), with a flow rate of 2 mL/min.

| Ki (PSMA) [nM] | Compound | Specific cell surface (C4-2 cells) [%IA/10^6cells] | Specific lysate (internalization) (C4-2 cells) [%IA/10^6 cells] | release of ^177Lu in human serum ([2]; 37°C) | further results |
| --- | --- | --- | --- | --- | --- |
| 33.8 ± 2.13 | O=C(O)CCC(NC(=O)NC(CCCCNC(=O)c1ccc(CN2CCN(CC(=O)O)CCN(CC(=O)O)CCN(CC(=O)O)CC2)cc1)C(=O)O)C(=O)O (stereo not drawn) [CA027] | 2.18 ± 0.50 | 1.70 ± 0.24 |  |  |
| 15.2 ± 6.11 | O=C(O)CCC(NC(=O)NC(CCCCNC(=O)C(Cc1ccc2ccccc2c1)NC(=O)C1CCC(CNC(=O)c2ccc(CN3CCN(CC(=O)O)CCN(CC(=O)O)CCN(CC(=O)O)CC3)cc2)CC1)C(=O)O)C(=O)O (stereo not drawn) [CA028] | 94.12 ± 2.70 | 41.22 ± 2.72 |  |  |
| 11 ± 4.87 | O=C(O)CCC(NC(=O)NC(CCCCNC(=O)C(Cc1ccc2ccccc2c1)NC(=O)C1CCC(CNC(=S)Nc2ccc(CNC(=O)CCC(C(=O)O)N3CCN(CC(=O)O)CCN(CC(=O)O)CCN(CC(=O)O)CC3)cc2)CC1)C(=O)O)C(=O)O (stereo not drawn) [CA029] | 46.83 ± 3.07 | 44.26 ± 3.96 |  |  |
| 4.79 ± 1.31 | O=C(O)CCC(NC(=O)NC(CCCCNC(=O)C(Cc1ccc2ccccc2c1)NC(=O)C1CCC(CNC(=S)Nc2ccc(CC3CN(CC(=O)O)CCN(CC(=O)O)CCN(CC(=O)O)CCN3CC(=O)O)cc2)CC1)C(=O)O)C(=O)O (stereo not drawn) [CA030] | 43.46 ± 1.50 | 53.78 ± 5.45 |  | specific internalization in C4-2 cells (C4-2 cells; Table 2): 53.78 % ID/10^6 cells |
|  | O=C([O-])CN1CCN(CC(=O)[O-])CCN(Cc2ccc(C(=O)NCCCCC(NC(=O)NC(CCC(=O)O)C(=O)O)C(=O)O)cc2)CCN(CC(=O)[O-])CC1.[68Ga+3] (stereo not drawn) [^68Ga-CA027] |  |  |  | plasma half-life t1/2 [1]: 2.7 min |
|  | O=C([O-])CN1CCN(CC(=O)[O-])CCN(Cc2ccc(C(=O)NCC3CCC(C(=O)NC(Cc4ccc5ccccc5c4)C(=O)NCCCCC(NC(=O)NC(CCC(=O)O)C(=O)O)C(=O)O)CC3)cc2)CCN(CC(=O)[O-])CC1.[177Lu+3] (stereo not drawn) [^177Lu-CA028] |  |  |  | metabolization in vivo (radio-HPLC of extracts) (C4-2 tumor-bearing mice): activity elutes at the retention time of the intact tracer; free activity in human serum ([2]; 37°C, 'at this time point'): 40% |
|  | O=C([O-])CN1CCN(CC(=O)[O-])CCN(C(CCC(=O)NCc2ccc(NC(=S)NCC3CCC(C(=O)NC(Cc4ccc5ccccc5c4)C(=O)NCCCCC(NC(=O)NC(CCC(=O)O)C(=O)O)C(=O)O)CC3)cc2)C(=O)O)CCN(CC(=O)[O-])CC1.[177Lu+3] (stereo not drawn) [^177Lu-CA029] |  |  | no release |  |
|  | O=C([O-])CN1CCN(CC(=O)[O-])CCN(CC(=O)O)C(Cc2ccc(NC(=S)NCC3CCC(C(=O)NC(Cc4ccc5ccccc5c4)C(=O)NCCCCC(NC(=O)NC(CCC(=O)O)C(=O)O)C(=O)O)CC3)cc2)CN(CC(=O)[O-])CC1.[177Lu+3] (stereo not drawn) [^177Lu-CA030] |  |  | no release | stability in human serum ([2]; over 72 h): stable |
|  | O=C([O-])CN1CCN(CC(=O)[O-])CCN(CC(=O)NCC2CCC(C(=O)N[C@@H](Cc3ccc4ccccc4c3)C(=O)NCCCC[C@H](NC(=O)N[C@@H](CCC(=O)O)C(=O)O)C(=O)O)CC2)CCN(CC(=O)[O-])CC1.[177Lu+3] (stereo partly drawn) [^177Lu-PSMA-617, reference compound] |  |  | no release | metabolization in vivo (radio-HPLC of extracts) (C4-2 tumor-bearing mice): activity elutes at the retention time of the intact tracer |
